Measured values taken from PMC3169404, “Inhibitor-bound complexes of dihydrofolate reductase-thymidylate synthase from Babesia bovis” (Acta Crystallographica Section F: Structural Biology and …, 2011).

Columns and labels:
BbDHFR-TS [1] = target: T1, BbDHFR-TS (Babesia bovis, UniProt A7ASX7); assay: X-ray crystal structures (co-purified 3k2h; cocrystallisation 3nrr); format: binding; details: DHFR site; with pemetrexed (3k2h) or raltitrexed (3nrr); oxidation state not stated beyond NADP
T1 construct: gene BBOV_II000780; full length 1-511, N-terminal 6xHis-Smt tag removed by Ulp1 without remnant, expressed in E. coli BL21 (DE3); DHFR about 1-186, 40-residue linker, TS C-terminal 285 residues
T1 sequence (A7ASX7 1-511): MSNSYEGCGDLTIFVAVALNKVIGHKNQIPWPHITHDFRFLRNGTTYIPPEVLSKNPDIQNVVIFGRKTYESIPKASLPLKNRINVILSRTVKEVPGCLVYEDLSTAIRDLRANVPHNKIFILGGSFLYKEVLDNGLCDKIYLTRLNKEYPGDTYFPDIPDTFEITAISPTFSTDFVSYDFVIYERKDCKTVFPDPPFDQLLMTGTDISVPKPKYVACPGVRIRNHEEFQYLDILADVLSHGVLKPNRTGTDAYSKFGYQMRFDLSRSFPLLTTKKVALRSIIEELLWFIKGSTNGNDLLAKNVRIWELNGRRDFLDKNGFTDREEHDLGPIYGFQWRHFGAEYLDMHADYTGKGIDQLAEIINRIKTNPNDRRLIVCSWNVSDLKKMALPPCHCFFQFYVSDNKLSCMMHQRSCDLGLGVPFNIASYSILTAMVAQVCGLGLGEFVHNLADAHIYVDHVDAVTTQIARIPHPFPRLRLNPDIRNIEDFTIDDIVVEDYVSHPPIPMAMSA

[2] = target: dihydrofolate reductase-thymidylate synthase from B. bovis (Babesia bovis (Texas T2Bo isolate)); assay: crystal structure; three crystal structures of BbDHFR-TS (apo; with dUMP, NADP and pemetrexed; with dUMP, NADP and raltitrexed); space group P1, homodimer in the asymmetric unit; crystals grown at 289 K, data at 100 K
BbDHFR-TS [3] = target: T1, BbDHFR-TS; assay: X-ray crystal structures (soak 3k2h; cocrystallisation 3nrr); format: binding; details: TS active site; ternary complex with pemetrexed (3k2h) or raltitrexed (3nrr)
BbDHFR-TS [4] = target: T1, BbDHFR-TS; assay: X-ray crystal structure, […] Å, soak; format: binding; details: in both TS site (with dUMP) and DHFR site (with NADP); 2 mM pemetrexed, 2.0 mM dUMP; PEG 8000, CHES pH 9.5, 289 K
BbDHFR-TS [5] = target: T1, BbDHFR-TS; assay: X-ray crystal structure, […] Å, cocrystallisation; format: binding; details: in both TS site (with dUMP) and DHFR site (with NADP); 5 mM raltitrexed, 2 mM dUMP, 2 mM NADP; 20 mM MgCl2, HEPES pH 7.5, 289 K

## NC(=O)c1ccc[n+]([C@@H]2O[C@H](COP(=O)(O)OP(=O)(O)OC[C@H]3O[C@@H](n4cnc5c(N)ncnc54)[C@H](OP(=O)(O)O)[C@@H]3O)[C@@H](O)[C@H]2O)c1 [NADP]
BbDHFR-TS [1]
  X-ray crystal structures (co-purified 3k2h; cocrystallisation 3nrr): pemetrexed and NADP bound in the DHFR subunit

## dihydrofolate reductase-thymidylate synthase from B. bovis (enzyme)
[2]
  stoichiometry N: 2

## O=c1ccn([C@H]2C[C@H](O)[C@@H](COP(=O)(O)O)O2)c(=O)[nH]1 [dUMP]
BbDHFR-TS [3]
  X-ray crystal structures (soak 3k2h; cocrystallisation 3nrr): contains the antifolate pemetrexed and dUMP bound in the TS subunit

## Nc1nc(=O)c2c(CCc3ccc(C(=O)N[C@@H](CCC(=O)O)C(=O)O)cc3)c[nH]c2[nH]1 [PTX, pemetrexed]
BbDHFR-TS [4]
  X-ray crystal structure, 2.2 Å, soak: contains the antifolate pemetrexed and dUMP bound in the TS subunit and pemetrexed and NADP

## Cc1nc2ccc(CN(C)c3ccc(C(=O)N[C@@H](CCC(=O)O)C(=O)O)s3)cc2c(=O)[nH]1 [RTX, raltitrexed]
BbDHFR-TS [5]
  X-ray crystal structure, 1.8 Å, cocrystallisation: raltirexed rather than pemetrexed in both folate sites, as well as dUMP and NADP
